Where a SMILES comes first, the peptide text is derived from it. [ ]: non-standard residue; d: D form. αMeF = C[C@](N)(Cc1ccccc1)C(=O)O; Aib = CC(C)(N)C(=O)O
Experiments:
hGLP-1R = biological target: T1, hGLP-1R (Homo sapiens, UniProt P43220); test: cAMP functional assay, cells expressing human GLP-1 receptor (primary assay); format: cell-based; details: n = 2
T1 construct: expressed in transfected cells
Experimental: (§1) The biological activities/receptor potencies of the synthetic GLP-1 peptides described herein are suitably tested for biological activity, e.g., stimulation of one or more cellular receptor responses. Stable cell lines expressing human, mouse, rat, or dog GLP-1 receptor (GLP-1R), glucagon receptor (GCGR) or glucose-dependent insulinotropic peptide (gastric inhibitory polypeptide) receptor (GIPR) are generated in HEK293 cells or CHO cells by standard methods.
(§2) cAMP assays were performed using “assay buffer”: Assay Buffer: 0.1% BSA (Sigma #A3059) in HBSS (Sigma #H8264) with 25 mM HEPES, pH 7.4 and containing 0.5 mM IBMX (Sigma #17018).
(§3) Low protein binding 384-well plates (Greiner #781280) are used to perform eleven 1 in 5 serial dilutions of test samples which are made in assay buffer. All sample dilutions are made in duplicate.
(§4) A frozen cryo-vial of cells expressing the receptor of interest is thawed rapidly in a water-bath, transferred to pre-warmed assay buffer and spun at 240× g for 5 minutes. Cells are re-suspended in assay buffer at a batch-dependent optimized concentration (e.g. hGCGR cells at 2×10^5 cells/ml, hGLP-1R and hGIPR cells at 1×10^5 cells /ml).
(§5) From the dilution plate, a 5 μL replica is stamped onto a black shallow-well u-bottom 384-well plate (Corning #3676). To this, 5 μL cell suspension is added and the plates incubated at room temperature for 30 minutes.
(§6) cAMP levels are measured using a commercially available cAMP dynamic 2 HTRF kit (Cisbio, Cat #62AM4PEJ), following the two step protocol as per manufacturer's recommendations. In brief; anti-cAMP cryptate (donor fluorophore) and cAMP-d2 (acceptor fluorophore) are made up separately by diluting each 1/20 in conjugate & lysis buffer provided in the kit. 5 μL anti-cAMP cryptate is added to all wells of the assay plate, and 5 μL cAMP-d2 is added to all wells except non-specific binding (NSB) wells, to which conjugate and lysis buffer are added. Plates are incubated at room temperature for one hour and then read on an Envision (Perkin Elmer) using excitation wavelength of 320 nm and emission wavelengths of 620 nm & 665 nm. EC50 values of the synthetic peptides determined in cAMP assays are then determined.

hGIP-R = biological target: T2, hGIP-R (Homo sapiens, UniProt P48546); test: cAMP functional assay, cells expressing human GIP receptor (primary assay); format: cell-based; details: n = 2
T2 construct: expressed in transfected cells
T2 sequence (P48546 22-466): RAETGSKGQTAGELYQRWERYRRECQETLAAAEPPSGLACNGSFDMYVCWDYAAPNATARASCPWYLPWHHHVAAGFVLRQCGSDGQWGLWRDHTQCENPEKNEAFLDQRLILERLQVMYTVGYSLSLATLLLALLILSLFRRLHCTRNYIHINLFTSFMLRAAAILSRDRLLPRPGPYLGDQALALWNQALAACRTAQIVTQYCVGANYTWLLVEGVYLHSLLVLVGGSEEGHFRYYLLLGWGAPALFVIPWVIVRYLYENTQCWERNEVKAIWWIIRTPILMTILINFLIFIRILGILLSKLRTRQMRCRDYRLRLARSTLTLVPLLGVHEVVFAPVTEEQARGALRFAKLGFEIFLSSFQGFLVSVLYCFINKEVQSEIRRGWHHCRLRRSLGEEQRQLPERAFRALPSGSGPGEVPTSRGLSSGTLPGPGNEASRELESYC
Experimental: as §1, §2, §3, §4, §5, §6

T1 sequence (P43220 24-463): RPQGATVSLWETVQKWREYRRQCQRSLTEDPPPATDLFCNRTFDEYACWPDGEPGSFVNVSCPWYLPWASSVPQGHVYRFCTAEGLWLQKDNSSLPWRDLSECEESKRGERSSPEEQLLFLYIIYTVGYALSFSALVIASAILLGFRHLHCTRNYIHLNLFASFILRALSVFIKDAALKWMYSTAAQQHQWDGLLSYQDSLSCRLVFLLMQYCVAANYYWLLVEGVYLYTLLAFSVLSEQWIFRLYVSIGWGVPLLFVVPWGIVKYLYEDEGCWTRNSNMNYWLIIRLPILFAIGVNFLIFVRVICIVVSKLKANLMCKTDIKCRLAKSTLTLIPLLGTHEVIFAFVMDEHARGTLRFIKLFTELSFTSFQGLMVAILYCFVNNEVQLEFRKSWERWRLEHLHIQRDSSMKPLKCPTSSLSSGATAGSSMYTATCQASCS

EC50 (hGLP-1R) | EC50 (hGIP-R) | Compound
0.0117 nM | 98.9 nM | CC[C@H](C)[C@H](NC(=O)[C@H](Cc1ccccc1)NC(=O)[C@H](CCC(=O)O)NC(=O)[C@H](CCCCN)NC(=O)[C@H](C)NC(=O)[C@H](C)NC(=O)[C@H](CCC(N)=O)NC(=O)CNC(=O)[C@H](CCC(=O)O)NC(=O)[C@H](CC(C)C)NC(=O)[C@](C)(Cc1ccccc1)NC(=O)[C@H](CO)NC(=O)[C@H](CO)NC(=O)[C@@H](NC(=O)[C@H](CC(=O)O)NC(=O)[C@H](CO)NC(=O)[C@@H](NC(=O)[C@](C)(Cc1ccccc1)NC(=O)[C@@H](NC(=O)CNC(=O)[C@H](CCC(=O)O)NC(=O)C(C)(C)NC(=O)[C@@H](N)Cc1c[nH]cn1)[C@@H](C)O)[C@@H](C)O)C(C)C)C(=O)N[C@@H](C)C(=O)N[C@@](C)(Cc1ccccc1)C(=O)N[C@@H](CC(C)C)C(=O)N[C@H](C(=O)N[C@@H](CCCCN)C(=O)NCC(=O)N[C@@H](CCCNC(=N)N)C(N)=O)C(C)C [SEQ ID NO: 30, H-(Aib)^2-EGT^5-(α-MeF)^6-TSDV^10 SS-(α-MeF)^13-LE^15 GQAAK^20 EF^22-IA-(α-MeF)^25 LVKGR^30] (H-H[Aib]EGT[αMeF]TSDVSS[αMeF]LEGQAAKEFIA[αMeF]LVKGR-NH2)
0.0155 nM | 102 nM | CC[C@H](C)[C@H](NC(=O)[C@](C)(Cc1ccccc1)NC(=O)[C@H](CCC(=O)O)NC(=O)[C@H](CCCCN)NC(=O)[C@H](C)NC(=O)[C@H](C)NC(=O)[C@H](CCC(N)=O)NC(=O)CNC(=O)[C@H](CCC(=O)O)NC(=O)[C@H](CC(C)C)NC(=O)[C@H](Cc1ccc(O)cc1)NC(=O)[C@H](CO)NC(=O)[C@H](CO)NC(=O)[C@@H](NC(=O)[C@H](CC(=O)O)NC(=O)[C@H](CO)NC(=O)[C@@H](NC(=O)[C@](C)(Cc1ccccc1)NC(=O)[C@@H](NC(=O)CNC(=O)[C@H](CCC(=O)O)NC(=O)C(C)(C)NC(=O)[C@@H](N)Cc1c[nH]cn1)[C@@H](C)O)[C@@H](C)O)C(C)C)C(=O)N[C@@H](C)C(=O)N[C@@](C)(Cc1ccccc1)C(=O)N[C@@H](CC(C)C)C(=O)N[C@H](C(=O)N[C@@H](CCCCN)C(=O)NCC(=O)N[C@@H](CCCNC(=N)N)C(N)=O)C(C)C [SEQ ID NO: 31, H-(Aib)^2-EGT^5-(α-MeF)^6-TSDV^10 SSYLE^15 GQAAK^20 E-(α-MeF)^22-IA-(α-MeF)^25 LVKGR^30]
0.102 nM | 102 nM | CC[C@H](C)[C@H](NC(=O)[C@](C)(Cc1ccccc1)NC(=O)[C@H](CCC(=O)O)NC(=O)[C@H](CCCCN)NC(=O)[C@H](C)NC(=O)[C@H](C)NC(=O)[C@H](CCC(N)=O)NC(=O)CNC(=O)[C@H](CCC(=O)O)NC(=O)[C@H](CC(C)C)NC(=O)[C@](C)(Cc1ccccc1)NC(=O)[C@H](CO)NC(=O)[C@H](CO)NC(=O)[C@@H](NC(=O)[C@H](CC(=O)O)NC(=O)[C@H](CO)NC(=O)[C@@H](NC(=O)[C@H](Cc1ccccc1)NC(=O)[C@@H](NC(=O)CNC(=O)[C@H](CCC(=O)O)NC(=O)C(C)(C)NC(=O)[C@@H](N)Cc1c[nH]cn1)[C@@H](C)O)[C@@H](C)O)C(C)C)C(=O)N[C@@H](C)C(=O)N[C@@](C)(Cc1ccccc1)C(=O)N[C@@H](CC(C)C)C(=O)N[C@H](C(=O)N[C@@H](CCCCN)C(=O)NCC(=O)N[C@@H](CCCNC(=N)N)C(N)=O)C(C)C [SEQ ID NO: 32, H-(Aib)^2-EGT^5-FTSDV^10 SS-(α-MeF)^13-LE^15 GQAAK^20 E-(α-MeF)^22-IA-(α-MeF)^25 LVKGR^30] (H-H[Aib]EGTFTSDVSS[αMeF]LEGQAAKE[αMeF]IA[αMeF]LVKGR-NH2)
0.0183 nM | 102 nM | CC[C@H](C)[C@H](NC(=O)[C@H](Cc1ccccc1)NC(=O)[C@H](CCC(=O)O)NC(=O)[C@H](CCCCN)NC(=O)[C@H](C)NC(=O)[C@H](C)NC(=O)[C@H](CCC(N)=O)NC(=O)CNC(=O)[C@H](CCC(=O)O)NC(=O)[C@H](CC(C)C)NC(=O)[C@H](Cc1ccccc1)NC(=O)[C@H](CO)NC(=O)[C@H](CO)NC(=O)[C@@H](NC(=O)[C@H](CC(=O)O)NC(=O)[C@H](CO)NC(=O)[C@@H](NC(=O)[C@H](Cc1ccccc1)NC(=O)[C@H](CO)NC(=O)CNC(=O)[C@H](CCC(=O)O)NC(=O)C(C)(C)NC(=O)[C@@H](N)Cc1c[nH]cn1)[C@@H](C)O)C(C)C)C(=O)N[C@@H](C)C(=O)N[C@@H](Cc1ccccc1)C(=O)N[C@@H](CC(C)C)C(=O)N[C@H](C(=O)N[C@@H](CCCCN)C(=O)NCC(=O)N[C@@H](CCCNC(=N)N)C(N)=O)C(C)C [SEQ ID NO: 33, H-(Aib)^2-EG-(S)^5-FTSDV^10 SS-(F)^13-LE^15 GQAAK^20 EFIA-(F)^25 LVKGR^30] (H-H[Aib]EGSFTSDVSSFLEGQAAKEFIAFLVKGR-NH2)
0.0225 nM | 102 nM | CC[C@H](C)[C@H](NC(=O)[C@](C)(Cc1ccccc1)NC(=O)[C@H](CCC(=O)O)NC(=O)[C@H](CCCCN)NC(=O)[C@H](C)NC(=O)[C@H](C)NC(=O)[C@H](CCC(N)=O)NC(=O)CNC(=O)[C@H](CCC(=O)O)NC(=O)[C@H](CC(C)C)NC(=O)[C@](C)(Cc1ccccc1)NC(=O)[C@H](CO)NC(=O)[C@H](CO)NC(=O)[C@@H](NC(=O)[C@H](CC(=O)O)NC(=O)[C@H](CO)NC(=O)[C@@H](NC(=O)[C@](C)(Cc1ccccc1)NC(=O)[C@H](CO)NC(=O)CNC(=O)[C@H](CCC(=O)O)NC(=O)C(C)(C)NC(=O)[C@@H](N)Cc1c[nH]cn1)[C@@H](C)O)C(C)C)C(=O)N[C@@H](C)C(=O)N[C@@H](Cc1c[nH]c2ccccc12)C(=O)N[C@@H](CC(C)C)C(=O)N[C@H](C(=O)N[C@@H](CCCCN)C(=O)NCC(=O)N[C@@H](CCCNC(=N)N)C(N)=O)C(C)C [SEQ ID NO: 34, H-(Aib)^2-EG-(S)^5-(α-MeF)^6-TSDV^10 SS-(α-MeF)^13-LE^15 GQAAK^20 E-(α-MeF)^22-IAW^25 LVKGR^30] (H-H[Aib]EGS[αMeF]TSDVSS[αMeF]LEGQAAKE[αMeF]IAWLVKGR-NH2)
0.0201 nM | 102 nM | CC[C@H](C)[C@H](NC(=O)[C@H](Cc1ccccc1)NC(=O)[C@H](CCC(=O)O)NC(=O)[C@H](CCCCN)NC(=O)[C@H](C)NC(=O)[C@H](C)NC(=O)[C@H](CCC(N)=O)NC(=O)CNC(=O)[C@H](CCC(=O)O)NC(=O)[C@H](CC(C)C)NC(=O)[C@](C)(Cc1ccccc1)NC(=O)[C@H](CO)NC(=O)[C@H](CO)NC(=O)[C@@H](NC(=O)[C@H](CC(=O)O)NC(=O)[C@H](CO)NC(=O)[C@@H](NC(=O)[C@](C)(Cc1ccccc1)NC(=O)[C@H](CO)NC(=O)CNC(=O)[C@H](CCC(=O)O)NC(=O)C(C)(C)NC(=O)[C@@H](N)Cc1c[nH]cn1)[C@@H](C)O)C(C)C)C(=O)N[C@@H](C)C(=O)N[C@@](C)(Cc1ccccc1)C(=O)N[C@@H](CC(C)C)C(=O)N[C@H](C(=O)N[C@@H](CCCCN)C(=O)NCC(=O)N[C@@H](CCCNC(=N)N)C(N)=O)C(C)C [SEQ ID NO: 35, H-(Aib)^2-EG-(S)^5-(α-MeF)^6-TSDV^10 SS-(α-MeF)^13-LE^15 GQAAK^20 EFIA-(α-MeF)^25 LVKGR^30] (H-H[Aib]EGS[αMeF]TSDVSS[αMeF]LEGQAAKEFIA[αMeF]LVKGR-NH2)
0.0267 nM | 102 nM | CC[C@H](C)[C@H](NC(=O)[C@](C)(Cc1ccccc1)NC(=O)[C@H](CCC(=O)O)NC(=O)[C@H](CCCCN)NC(=O)[C@H](C)NC(=O)[C@H](C)NC(=O)[C@H](CCC(N)=O)NC(=O)CNC(=O)[C@H](CCC(=O)O)NC(=O)[C@H](CC(C)C)NC(=O)[C@H](Cc1ccc(O)cc1)NC(=O)[C@H](CO)NC(=O)[C@H](CO)NC(=O)[C@@H](NC(=O)[C@H](CC(=O)O)NC(=O)[C@H](CO)NC(=O)[C@@H](NC(=O)[C@](C)(Cc1ccccc1)NC(=O)[C@H](CO)NC(=O)CNC(=O)[C@H](CCC(=O)O)NC(=O)C(C)(C)NC(=O)[C@@H](N)Cc1c[nH]cn1)[C@@H](C)O)C(C)C)C(=O)N[C@@H](C)C(=O)N[C@@](C)(Cc1ccccc1)C(=O)N[C@@H](CC(C)C)C(=O)N[C@H](C(=O)N[C@@H](CCCCN)C(=O)NCC(=O)N[C@@H](CCCNC(=N)N)C(N)=O)C(C)C [SEQ ID NO: 36, H-(Aib)^2-EG-(S)^5-(α-MeF)^6-TSDV^10 SSYLE^15 GQAAK^20 E-(α-MeF)^22-IA-(α-MeF)^25 LVKGR^30] (H-H[Aib]EGS[αMeF]TSDVSSYLEGQAAKE[αMeF]IA[αMeF]LVKGR-NH2)

From patent US20160318987A1 (MEDIMMUNE LIMITED, priority 2013, published 2016)
